Experiments:
[1] = molecular target: T1, PIP4K2A (full length protein, SignalChem) (Homo sapiens, UniProt P48426); assay: Kinase Assay PIP4K2 A (Sprint); ADP-Glo biochemical assay; settings: Table 2; compounds listed under IC50 range headings
T1 construct: 4 nM PIP4K2A (full length protein, SignalChem); purchased SignalChem
T1 sequence (P48426 1-406): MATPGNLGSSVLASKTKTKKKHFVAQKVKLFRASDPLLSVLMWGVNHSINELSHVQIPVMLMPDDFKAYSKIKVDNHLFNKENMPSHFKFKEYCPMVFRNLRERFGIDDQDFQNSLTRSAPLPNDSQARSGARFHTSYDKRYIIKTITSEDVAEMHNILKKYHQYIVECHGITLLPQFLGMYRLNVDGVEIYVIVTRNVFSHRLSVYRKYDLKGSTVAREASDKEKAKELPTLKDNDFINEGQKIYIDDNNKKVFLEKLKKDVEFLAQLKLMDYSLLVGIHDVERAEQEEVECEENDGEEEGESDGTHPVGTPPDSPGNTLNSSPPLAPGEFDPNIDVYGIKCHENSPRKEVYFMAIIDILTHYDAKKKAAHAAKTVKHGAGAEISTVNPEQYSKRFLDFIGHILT
Method in brief: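 ADP-Glo luminescence detected ADP after a 1 h RT reaction started with 60 μM ATP solution. Before that, full-length PIP4K2A (4 nM in mix) with 100 μM PI(5)P diC8 was pre-incubated 15 min with compounds in MOPS buffer pH 7.2, 25 mM MgCl2, 0.005% Tween 20. IC50 derived from % inhibition relative to DMSO over 10 three-fold concentrations.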

GST tagged PIP4KtypeIIB = molecular target: T2, GST tagged PIP4KtypeIIB (Homo sapiens, UniProt P78356); assay: Trans-FI P kinase assay PIP4K2B (PIP4KtypeIIB inhibition assay); format: biochemical; settings: Table 4; compounds listed under IC50 range headings; 100 uM GTP, 5 nM PIP4KIIB; read-out: Trans-FI P kinase assays: PIP4K2B IC50
T2 construct: made in house; host or cells: E. coli
T2 sequence (P78356 1-416): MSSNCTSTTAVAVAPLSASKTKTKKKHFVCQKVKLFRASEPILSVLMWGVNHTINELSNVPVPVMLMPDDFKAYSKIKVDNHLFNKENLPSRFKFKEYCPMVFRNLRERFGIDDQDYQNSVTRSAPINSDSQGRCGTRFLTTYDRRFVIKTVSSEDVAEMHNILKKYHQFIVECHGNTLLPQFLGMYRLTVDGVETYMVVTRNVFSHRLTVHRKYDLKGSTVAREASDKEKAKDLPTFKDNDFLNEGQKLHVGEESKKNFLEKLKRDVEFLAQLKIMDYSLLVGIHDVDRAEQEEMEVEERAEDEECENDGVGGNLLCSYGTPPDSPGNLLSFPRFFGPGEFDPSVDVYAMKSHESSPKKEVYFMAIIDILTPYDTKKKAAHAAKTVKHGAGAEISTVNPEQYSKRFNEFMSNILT
Method in brief: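 Transcreener FI fluorescence, converted to GDP by calibration, tracked product from 5 nM E. coli-expressed GST-PIP4KIIB acting on 80 uM PI5P (DOPE carrier) with 100 uM GTP. Compound (top 4.8 uM final, 5% DMSO) was preincubated 1 h at 27 C before the 2 h reaction; IC50 fitted from residual activity.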

Compound	IC50 [1]	IC50 (GST tagged PIP4KtypeIIB)
CC(C)c1cnoc1-c1ccc(-c2cncc(-c3ccnc4c3cc3n4CCN(C)C3=O)c2)cc1 [Example 363, 4-(5-(4-(4-isopropylisoxazol-5-yl)phenyl)pyridin-3-yl)-7-methyl-8,9-dihydropyrido[3′,2′:4,5]pyrrolo[1,2-a]pyrazin-6(7H)-one]	100 to 1000 nM	10 to 100 nM
CC(C)n1cnnc1-c1ccc(-c2cncc(-c3ccnc4c3cc3n4CCN(Cc4ccncc4)C3=O)c2)cc1 [Example 385, 4-(5-(4-(4-isopropyl-4H-1,2,4-triazol-3-yl)phenyl)pyridin-3-yl)-7-(pyridin-4-ylmethyl)-8,9-dihydropyrido[3′,2′:4,5]pyrrolo[1,2-a]pyrazin-6(7H)-one]	100 to 1000 nM	1 to 10 nM
CN(C)C(=O)c1ccc(-c2cc(-c3cnc4c(c3)c(-c3cncnc3)cn4C)cnc2N)nc1 [Example 122, 2′-amino-N,N-dimethyl-5′-(1-methyl-3-(pyrimidin-5-yl)-1H-pyrrolo[2,3-b]pyridin-5-yl)-[2,3′-bipyridine]-5-carboxamide]	100 to 1000 nM	1000 to 2500 nM
O=C1CCCN1c1ccc(-c2cncc(-c3cnc4ncc(-c5cccnc5)n4c3)c2)cc1 [Example 344, 1-(4-(5-(3-(pyridin-3-yl)imidazo[1,2-a]pyrimidin-6-yl)pyridin-3-yl)phenyl)pyrrolidin-2-one]	2500 to 5000 nM	> 5000 nM
Cc1noc2nccc(-c3cncc(-c4ccc(N5CCCC5=O)cc4)c3)c12 [Example 307, 1-(4-(5-(3-methylisoxazolo[5,4-b]pyridin-4-yl)pyridin-3-yl)phenyl)pyrrolidin-2-one]	1000 to 2500 nM	100 to 1000 nM
CN1CCn2c(cc3c(-c4cncc(-c5ccc(C(=O)N6CCC7(CC7)C6)cc5)c4)ccnc32)C1=O [Example 230, 4-(5-(4-(5-azaspiro[2.4]heptane-5-carbonyl)phenyl)pyridin-3-yl)-7-methyl-8,9-dihydropyrido[3′,2′:4,5]pyrrolo[1,2-a]pyrazin-6(7H)-one]	100 to 1000 nM	100 to 1000 nM
CC(C)Cn1cnnc1-c1ccc(-c2cncc(-c3ccnc4c3cc3n4CCN(C)C3=O)c2)cc1 [Example 383, 4-(5-(4-(4-isobutyl-4H-1,2,4-triazol-3-yl)phenyl)pyridin-3-yl)-7-methyl-8,9-dihydropyrido[3′,2′:4,5]pyrrolo[1,2-a]pyrazin-6(7H)-one]	100 to 1000 nM	10 to 100 nM

Now from value to compound:

IC50 [1]	IC50 (GST tagged PIP4KtypeIIB)	Compound
100 to 1000 nM	10 to 100 nM	O=C(NCc1ncco1)c1cc2c(-c3cncc(-c4ccc(N5CCCC5=O)cc4)c3)ccnc2[nH]1 [Example 330, N-(oxazol-2-ylmethyl)-4-(5-(4-(2-oxopyrrolidin-1-yl)phenyl)pyridin-3-yl)-1H-pyrrolo[2,3-b]pyridine-2-carboxamide]
1000 to 2500 nM	10 to 100 nM	CC(C)Cn1cnnc1-c1ccc(-c2cncc(-c3ccnc4[nH]c(C(=O)NCc5ccccc5)cc34)c2)cc1 [Example 372, N-benzyl-4-(5-(4-(4-isobutyl-4H-1,2,4-triazol-3-yl)phenyl)pyridin-3-yl)-1H-pyrrolo[2,3-b]pyridine-2-carboxamide]
1000 to 2500 nM	100 to 1000 nM	O=C(COc1cccc2c1C(=O)N(C1CCC(=O)NC1=O)C2=O)NCCOCCOCCOCCNC(=O)c1cc2c(-c3cncc(-c4ccc(N5CCCC5=O)cc4)c3)ccnc2[nH]1 (stereo not shown) [Example 393, N-(1-((2-(2,6-dioxopiperidin-3-yl)-1,3-dioxoisoindolin-4-yl)oxy)-2-oxo-6,9,12-trioxa-3-azatetradecan-14-yl)-4-(5-(4-(2-oxopyrrolidin-1-yl)phenyl)pyridin-3-yl)-1H-pyrrolo[2,3-b]pyridine-2-carboxamide]
100 to 1000 nM	1 to 10 nM	O=C1CCCN1c1ccc(-c2cncc(-c3ccnc4c3cc3n4CCN(c4ccc5c(n4)OCCO5)C3=O)c2)cc1 [Example 308, 7-(2,3-dihydro-[1,4]dioxino[2,3-b]pyridin-6-yl)-4-(5-(4-(2-oxopyrrolidin-1-yl)phenyl)pyridin-3-yl)-8,9-dihydropyrido[3′,2′:4,5]pyrrolo[1,2-a]pyrazin-6(7H)-one]

From patent US11919902B2, “Aryl-bipyridine amine derivatives as phosphatidylinositol phosphate kinase inhibitors” (HiberCell, Inc., priority 2017, dated 2024)
